Experimental data: patent publication US10266526B2, “Substituted 1,2,3-triazoles as SMYD inhibitors for treating cancer” (EPIZYME, INC., priority 2014, dated 2019)
Structures can show the parent of a compound that is named as a salt.

target: SMYD3 (Homo sapiens (Human), UniProt Q9H7B4); test: SMYD3 biochemical assay (SMYD3 enzyme assay on MEKK2 protein substrate, 3H-SAM scintillation proximity assay); details: Table 1A; average of n = 1 to n = 50; read-out: SMYD3 Biochem IC50
In short: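 Detection used scintillation proximity beads to capture ³H-methylated GST-MEKK2 after quench with 100 uM final cold SAM. The reaction was started by SAM/MEKK2 addition after a 30 min RT compound–enzyme preincubation. Enzyme was tag-free full-length human SMYD3 from E. coli, in buffer of 25 mM Tris-Cl pH 8.0, 1 mM TCEP, 0.005% BSG, 0.005% Tween 20.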

SMYD3, sequence (Q9H7B4 whole entry): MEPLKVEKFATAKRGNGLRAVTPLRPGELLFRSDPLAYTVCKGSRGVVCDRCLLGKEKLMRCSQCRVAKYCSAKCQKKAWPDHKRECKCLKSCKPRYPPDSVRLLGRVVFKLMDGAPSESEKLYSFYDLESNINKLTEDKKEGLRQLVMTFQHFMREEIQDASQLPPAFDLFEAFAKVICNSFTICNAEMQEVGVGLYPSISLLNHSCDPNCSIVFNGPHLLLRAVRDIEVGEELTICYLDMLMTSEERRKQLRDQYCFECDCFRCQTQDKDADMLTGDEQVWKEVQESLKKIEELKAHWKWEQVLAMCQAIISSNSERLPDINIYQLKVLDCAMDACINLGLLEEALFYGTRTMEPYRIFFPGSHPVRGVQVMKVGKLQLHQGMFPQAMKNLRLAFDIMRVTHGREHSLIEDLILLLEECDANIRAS

| IC50 | SMILES |
| --- | --- |
| > 50 µM | N[C@H]1CC[C@H](NC(=O)c2cc(Cl)[nH]n2)CC1 [compound 545, N-((1r,4r)-4-aminocyclohexyl)-5-chloro-1H-pyrazole-3-carboxamide] |
| 4.45 µM | NCCC(=O)N[C@H]1CC[C@H](NC(=O)c2cc3cn[nH]c3cn2)CC1 [compound 529, N-((1r,4r)-4-(3-aminopropanamido)cyclohexyl)-1H-pyrazolo[3,4-c]pyridine-5-carboxamide] |
| > 10 µM | CCc1cccc(C(=O)N[C@H]2CCN(S(=O)(=O)CCCN)[C@H](C)C2)c1 (racemic) [compound 573, (±)-trans-N-(1-((3-aminopropyl)sulfonyl)-2-methylpiperidin-4-yl)-3-ethylbenzamide] |
| > 50 µM | NCCC(=O)N[C@H]1CC[C@H](NC(=O)c2n[nH]c(=O)[nH]2)CC1 [compound 530, N-((1r,4r)-4-(3-aminopropanamido)cyclohexyl)-5-oxo-4,5-dihydro-1H-1,2,4-triazole-3-carboxamide] |
| > 10 µM | Cc1c[nH]c(C(=O)N[C@H]2CC[C@H](N)CC2)n1 [compound 562, N-((1r,4r)-4-aminocyclohexyl)-4-methyl-1H-imidazole-2-carboxamide] |
| > 10 µM | C[C@@H]1C[C@H](NC(=O)c2ccccc2)CCN1S(=O)(=O)CCCN (stereo in doubt) [compound 564, (±)-cis-N-(1-((3-aminopropyl)sulfonyl)-2-methylpiperidin-4-yl)benzamide] |
| > 50 µM | CCc1nnc(C(=O)N[C@H]2CC[C@H](NC(=O)CCN)CC2)[nH]1 [compound 536, N-((1r,4r)-4-(3-aminopropanamido)cyclohexyl)-5-ethyl-4H-1,2,4-triazole-3-carboxamide] |
| > 10 µM | C[C@H]1C[C@H](NC(=O)c2ccccc2)CCN1C(=O)C1CCC(N)CC1 (mixture of isomers) [compound 571, (±)-trans-N-(1-(4-aminocyclohexane-1-carbonyl)-2-methylpiperidin-4-yl)benzamide] |
| > 50 µM | O=C(NC1CCN(C(=O)CC2CCNCC2)CC1)c1nnc[nH]1 [compound 547, N-(1-(2-(piperidin-4-yl)acetyl)piperidin-4-yl)-4H-1,2,4-triazole-3-carboxamide] |

same assay, conditions: read-out: SMYD3 Biochem IC50

| IC50 | SMILES |
| --- | --- |
| 20.7 µM | N[C@H]1CC[C@H](NC(=O)c2cc3cccc(O)c3cc2O)CC1 [compound 460, N-((1r,4r)-4-aminocyclohexyl)-3,5-dihydroxy-2-naphthamide] |
| > 100 µM | N[C@H]1CC[C@H](NC(=O)c2cc3ccccc3[nH]2)CC1 [compound 234, N-((1r,4r)-4-aminocyclohexyl)-1H-indole-2-carboxamide] |
| > 100 µM | NCCC(=O)N[C@H]1CC[C@H](NC(=O)c2nccc3ccccc23)CC1 [compound 196, N-((1r,4r)-4-(3-aminopropanamido)cyclohexyl)isoquinoline-1-carboxamide] |
| > 100 µM | Cc1c(C(=O)N[C@H]2CC[C@H](NC(=O)CCN)CC2)nnn1-c1ccccc1 [compound 401, N-((1r,4r)-4-(3-aminopropanamido)cyclohexyl)-5-methyl-1-phenyl-1H-1,2,3-triazole-4-carboxamide] |
| 1.25 µM | CN(C(=O)CN)C1CCC(NC(=O)c2ccc3c(c2)CC(=O)N3)CC1 (stereo not shown) [compound 214, N-(4-(2-amino-N-methylacetamido)cyclohexyl)-2-oxoindoline-5-carboxamide] |
| > 100 µM | COc1cnc(C(=O)N[C@H]2CC[C@H](N)CC2)cn1 [compound 384, N-((1r,4r)-4-aminocyclohexyl)-5-methoxypyrazine-2-carboxamide] |
| > 100 µM | N[C@H]1CC[C@H](NC(=O)c2ncccc2O)CC1 [compound 480, N-((1r,4r)-4-aminocyclohexyl)-3-hydroxypicolinamide] |
| 32.7 µM | CC(NC(=O)c1noc(C2CC2)n1)C1CCN(C(=O)[C@H](C)N)CC1 (stereo partly drawn) [compound 464, N-(1-(1-(L-alanyl)piperidin-4-yl)ethyl)-5-cyclopropyl-1,2,4-oxadiazole-3-carboxamide] |
| > 100 µM | Cc1ccc(C(=O)N[C@H]2CC[C@H](NC(=O)CCN)CC2)cn1 [compound 382, N-((1r,4r)-4-(3-aminopropanamido)cyclohexyl)-6-methylnicotinamide] |
| > 100 µM | CC(NC(=O)c1cc(C(C)(C)C)nn1C)C1CCN(C(=O)[C@H](C)N)CC1 (stereo partly drawn) [compound 260, N-(1-(1-(L-alanyl)piperidin-4-yl)ethyl)-3-(tert-butyl)-1-methyl-1H-pyrazole-5-carboxamide] |
| > 100 µM | Cc1ccncc1C(=O)N[C@H]1CC[C@H](NC(=O)CCN)CC1 [compound 381, N-((1r,4r)-4-(3-aminopropanamido)cyclohexyl)-4-methylnicotinamide] |
| > 100 µM | Cc1cnc(C(=O)N[C@H]2CC[C@H](N)CC2)cn1 [compound 186, N-((1r,4r)-4-aminocyclohexyl)-5-methylpyrazine-2-carboxamide] |
| 35.8 µM | Cc1ncc(C(=O)N[C@H]2CC[C@H](NC(=O)CCN)CC2)cn1 [compound 184, N-((1r,4r)-4-(3-aminopropanamido)cyclohexyl)-2-methylpyrimidine-5-carboxamide] |
| > 100 µM | N[C@H]1CC[C@H](NC(=O)c2ccc(-n3cncn3)cc2)CC1 [compound 455, N-((1r,4r)-4-aminocyclohexyl)-4-(1H-1,2,4-triazol-1-yl)benzamide] |
| > 100 µM | CC(NC(=O)c1ccc2c(c1)CNC2=O)C1CCN(C(=O)[C@H](C)N)CC1 (stereo partly drawn) [compound 469, N-(1-(1-(L-alanyl)piperidin-4-yl)ethyl)-1-oxoisoindoline-5-carboxamide] |
| 72.9 µM | CC(NC(=O)c1nc2ccccc2[nH]1)C1CCN(C(=O)[C@H](C)N)CC1 (stereo partly drawn) [compound 243, N-(1-(1-(L-alanyl)piperidin-4-yl)ethyl)-1H-benzo[d]imidazole-2-carboxamide] |
| > 100 µM | N[C@H]1CC[C@H](NC(=O)c2cn3ccsc3n2)CC1 [compound 318, N-((1r,4r)-4-aminocyclohexyl)imidazo[2,1-b]thiazole-6-carboxamide] |

same assay, conditions: read-out: SMYD3 Biochem IC50 (μM)*

| IC50 | SMILES |
| --- | --- |
| > 100 µM | CS(=O)(=O)c1cccc(C(=O)N[C@H]2CC[C@H](NC(=O)CCN)CC2)c1 [compound 150, N-((1r,4r)-4-(3-aminopropanamido)cyclohexyl)-3-(methylsulfonyl)benzamide] |
| 19.7 µM | Cn1nc(O)cc1C(=O)NC1CCNCC1 [compound 69, 3-hydroxy-1-methyl-N-(piperidin-4-yl)-1H-pyrazole-5-carboxamide] |
| 3.04 µM | C[C@H](N)C(=O)N1CCC(O)(CNC(=O)c2ccc3c(c2)CC(=O)N3)CC1 [compound 112, N-((1-(L-alanyl)-4-hydroxypiperidin-4-yl)methyl)-2-oxoindoline-5-carboxamide] |
| 59.9 µM | CCc1cc(C(=O)N[C@H]2CC[C@H](N)CC2)n(C)n1 [compound 37, N-((1r,4r)-4-aminocyclohexyl)-3-ethyl-1-methyl-1H-pyrazole-5-carboxamide] |
| 35.7 µM | CC(NC(=O)c1ccc2ncc(O)nc2c1)C1CCN(C(=O)[C@H](C)N)CC1 (stereo partly drawn) [compound 99, N-(1-(1-(L-alanyl)piperidin-4-yl)ethyl)-3-hydroxyquinoxaline-6-carboxamide] |
| 3.52 µM | C[C@H](N)C(=O)N1CCC(C)(CNC(=O)c2ccc3c(c2)CC(=O)N3)CC1 [compound 176, N-((1-(L-alanyl)-4-methylpiperidin-4-yl)methyl)-2-oxoindoline-5-carboxamide] |
| 79 µM | CC(CN1CCCC1)C(=O)NC(c1ccccc1)C1CCNCC1 (stereo not shown) [compound 109, 2-methyl-N-(phenyl(piperidin-4-yl)methyl)-3-(pyrrolidin-1-yl)propanamide] |
| 16.7 µM | CN1C(=O)Cc2cc(C(=O)N[C@H]3CC[C@H](N)CC3)ccc21 [compound 84, N-((1r,4r)-4-aminocyclohexyl)-1-methyl-2-oxoindoline-5-carboxamide] |
| 0.42 µM | CC(N)C(=O)N[C@H]1CC[C@H](NC(=O)c2ccc3c(c2)CC(=O)N3)CC1 (stereo partly shown) [compound 175, N-((1r,4r)-4-(2-aminopropanamido)cyclohexyl)-2-oxoindoline-5-carboxamide] |
| 17 µM | CC(=O)Nc1ccc(S(=O)(=O)N2CCC(NC(=O)c3cn(C4CC4)nn3)CC2)cc1 [compound 10, N-(1-((4-acetamidophenyl)sulfonyl)piperidin-4-yl)-1-cyclopropyl-1H-1,2,3-triazole-4-carboxamide] |
| 14 µM | Cc1cc(C(=O)N[C@H]2CC[C@H](N)CC2)n(Cc2ccccc2)n1 [Cpd. No. 29, N-((1r,4r)-4-aminocyclohexyl)-1-benzyl-3-methyl-1H-pyrazole-5-carboxamide Hydrochloride] |
| 20 µM | O=C1Cc2cc(C(=O)NCC3CCNCC3)ccc2N1 [Cpd. No. 100, 2-oxo-N-(piperidin-4-ylmethyl)indoline-5-carboxamide Hydrochloride] |
| > 100 µM | CC(NC(=O)c1ccc2ccccc2n1)C1CCN(C(=O)[C@H](C)N)CC1 (stereo partly drawn) [compound 162, N-(1-(1-(L-alanyl)piperidin-4-yl)ethyl)quinoline-2-carboxamide] |
| 0.94 µM | CCOC(=O)C1(CNC(=O)c2ccc3c(c2)CC(=O)N3)CCN(C(=O)[C@H](C)N)CC1 [compound 132, ethyl 1-(L-alanyl)-4-((2-oxoindoline-5-carboxamido)methyl)piperidine-4-carboxylate] |
| 1.43 µM | CC(NC(=O)c1ccc2c(c1)CC(=O)N2)C1CCN(C(=O)[C@H](C)N)CC1 (stereo partly drawn) [Cpd. No. 86, N-(1-(1-((S)-2-aminopropanoyl)piperidin-4-yl)ethyl)-2-oxoindoline-5-carboxamide Hydrochloride] |
| 10 µM | CCC(=O)c1c[nH]c(C(=O)NC(c2ccccc2)C2CCNCC2)c1 (stereo not shown) [compound 77, N-(phenyl(piperidin-4-yl)methyl)-4-propionyl-1H-pyrrole-2-carboxamide] |
| 108 µM | CCC(=O)c1c[nH]c(C(=O)Nc2ccc(CN)cc2)c1 [compound 52, N-(4-(aminomethyl)phenyl)-4-propionyl-1H-pyrrole-2-carboxamide] |
